Values quoted from earlier work in patent US20040097484A1 (priority 2002, published 2004).

Conditions: in vivo

effective plasma concentration duration (sufficient elimination half-life): at least 4 hours
SMILES: COc1ccc2c3c1O[C@H]1C[C@@H](O)C=C[C@@]31CCN(C)C2 [galantamine, 4a, 5,9, 10, 11, 12-hexahydro-3-methoxy-11-methyl-6H-benzofuro [3a, 3,2-e][2] benzazepin-6-ol]
